Measurements published in ChEMBL document CHEMBL4330185, “Computer-Assisted Discovery and Structural Optimization of a Novel Retinoid X Receptor Agonist Chemotype” (ACS Med Chem Lett, 2019).
pEC50: −log10 of the molar value. Values after ≈ are worked out from the molar mass of the structure shown. Active and inactive are the calls of the source. The calls are words filed in the database; no cut-off is given here.

What was measured:
[1] = molecular target: T1, Retinoic acid receptor RXR-alpha (Homo sapiens, UniProt P19793); assay: Agonist activity at human Gal4-DBD fused RXRalpha LBD expressed in HEK293T cells after 12 to 14 hrs by luciferase reporter gene assay; assay type: cell-based; conditions: for pEC50: read-out: EC50
T1 sequence (P19793 whole entry): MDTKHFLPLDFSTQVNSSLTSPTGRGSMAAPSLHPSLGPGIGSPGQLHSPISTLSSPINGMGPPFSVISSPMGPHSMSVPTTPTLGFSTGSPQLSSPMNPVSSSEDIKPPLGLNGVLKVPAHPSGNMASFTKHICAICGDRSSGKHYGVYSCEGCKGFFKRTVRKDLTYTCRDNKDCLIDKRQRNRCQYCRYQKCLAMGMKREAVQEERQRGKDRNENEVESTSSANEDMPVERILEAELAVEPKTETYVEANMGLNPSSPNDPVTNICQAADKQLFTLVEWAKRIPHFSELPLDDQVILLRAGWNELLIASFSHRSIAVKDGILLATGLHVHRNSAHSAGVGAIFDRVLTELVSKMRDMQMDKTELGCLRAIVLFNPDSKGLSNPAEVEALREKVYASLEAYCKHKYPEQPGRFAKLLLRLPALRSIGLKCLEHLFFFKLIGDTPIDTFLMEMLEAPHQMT

[2] = molecular target: T2, Retinoic acid receptor RXR-beta (Homo sapiens, UniProt P28702); assay: Agonist activity at human Gal4-DBD fused RXRbeta LBD expressed in HEK293T cells after 12 to 14 hrs by luciferase reporter gene assay; assay type: cell-based; conditions: for pEC50: read-out: EC50
T2 sequence (P28702 whole entry): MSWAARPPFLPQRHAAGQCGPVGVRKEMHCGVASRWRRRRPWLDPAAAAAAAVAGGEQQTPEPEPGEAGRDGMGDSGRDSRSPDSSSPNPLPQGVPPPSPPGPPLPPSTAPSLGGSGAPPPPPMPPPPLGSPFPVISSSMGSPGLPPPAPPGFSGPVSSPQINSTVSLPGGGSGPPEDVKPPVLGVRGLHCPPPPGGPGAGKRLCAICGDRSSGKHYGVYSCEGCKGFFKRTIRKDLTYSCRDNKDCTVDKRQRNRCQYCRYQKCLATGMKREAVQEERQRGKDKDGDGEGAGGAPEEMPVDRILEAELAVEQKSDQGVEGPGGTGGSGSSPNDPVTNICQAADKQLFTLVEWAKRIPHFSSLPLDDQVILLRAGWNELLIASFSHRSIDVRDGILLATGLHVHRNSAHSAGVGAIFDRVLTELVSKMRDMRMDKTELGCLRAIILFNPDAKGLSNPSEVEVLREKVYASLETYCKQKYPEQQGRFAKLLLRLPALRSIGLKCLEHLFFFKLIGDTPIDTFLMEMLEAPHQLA

[3] = molecular target: T3, Retinoic acid receptor RXR-gamma (Homo sapiens, UniProt P48443); assay: Agonist activity at human Gal4-DBD fused RXRgamma LBD expressed in HEK293T cells after 12 to 14 hrs by luciferase reporter gene assay; assay type: cell-based; conditions: for pEC50: read-out: EC50
T3 sequence (P48443 whole entry): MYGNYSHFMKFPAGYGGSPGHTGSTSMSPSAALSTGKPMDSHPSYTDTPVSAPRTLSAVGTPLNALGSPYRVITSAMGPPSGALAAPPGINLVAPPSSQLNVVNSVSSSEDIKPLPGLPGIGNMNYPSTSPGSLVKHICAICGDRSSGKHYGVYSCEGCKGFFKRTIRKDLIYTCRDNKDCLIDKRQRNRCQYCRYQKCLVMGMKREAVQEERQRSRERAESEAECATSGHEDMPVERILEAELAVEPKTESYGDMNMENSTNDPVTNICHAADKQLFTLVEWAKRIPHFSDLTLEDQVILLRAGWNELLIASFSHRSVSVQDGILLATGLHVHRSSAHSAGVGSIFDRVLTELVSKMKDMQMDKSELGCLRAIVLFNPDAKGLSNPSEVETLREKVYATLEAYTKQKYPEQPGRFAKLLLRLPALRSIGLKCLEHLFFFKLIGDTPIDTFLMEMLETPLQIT

[4] = molecular target: T4, Retinoic acid receptor RXR-alpha (Homo sapiens) (UniProt P19793); assay: Agonist activity at human Gal4-DBD fused RXRalpha LBD expressed in HEK293T cells after 12 to 14 hrs by luciferase reporter gene assay relative to bexarotene; assay type: cell-based
T4 sequence (whole entry): T1 sequence (P19793 whole entry)

[5] = molecular target: T5, Retinoic acid receptor RXR-beta (Homo sapiens) (UniProt P28702); assay: Agonist activity at human Gal4-DBD fused RXRbeta LBD expressed in HEK293T cells after 12 to 14 hrs by luciferase reporter gene assay relative to bexarotene; assay type: cell-based
T5 sequence (whole entry): T2 sequence (P28702 whole entry)

[6] = molecular target: T6, Retinoic acid receptor RXR-gamma (Homo sapiens) (UniProt P48443); assay: Agonist activity at human Gal4-DBD fused RXRgamma LBD expressed in HEK293T cells after 12 to 14 hrs by luciferase reporter gene assay relative to bexarotene; assay type: cell-based
T6 sequence (whole entry): T3 sequence (P48443 whole entry)

HepG2 = assay: Cytotoxicity against human HepG2 cells up to 100 uM after 48 hrs by WST1 assay; assay type: cell-based; conditions: hepg2, 48 h
[7] = Aqueous solubility of the compound after 24 hrs by HPLC analysis; assay type: physicochemical; conditions: water
[8] = Lipophilicity, log P of the compound by HPLC analysis; assay type: physicochemical
[9] = molecular target: T6, Retinoic acid receptor RXR-gamma (Homo sapiens); assay: Agonist activity at human Gal4-DBD fused RXRgamma LBD expressed in HEK293T cells at 30 uM after 12 to 14 hrs by luciferase reporter gene assay; assay type: cell-based
[10] = molecular target: T4, Retinoic acid receptor RXR-alpha (Homo sapiens); assay: Agonist activity at human Gal4-DBD fused RXRalpha LBD expressed in HEK293T cells at 10 uM after 12 to 14 hrs by luciferase reporter gene assay; assay type: cell-based

pEC50 [1]	pEC50 [2]	pEC50 [3]	Emax [4] [%]	Emax [5] [%]	Emax [6] [%]	Compound	further results
4.62	4.54	< 4.52	19	25	–	O=C(O)c1ccc(COc2ccc(I)cc2)cc1	–
6.80	6.43	5.96	11	12	21	CC(C)(C)c1ccccc1OCc1ccc(C(=O)O)cc1	–
–	–	–	–	–	–	C=C(c1ccc(C(=O)O)cc1)c1cc2c(cc1C)C(C)(C)CCC2(C)C [BEXAROTENE]	Activity (HepG2): Non-Toxic; solubility at 24 h [7]: 0.31 µg/mL (≈ 0.89 µM); logP [8]: 5.2
< 4.52	< 4.52	< 4.52	–	–	–	O=C(O)c1ccc(COc2ccccc2)cc1	–
5.22	5.37	4.96	118	66	49	O=C(O)c1ccc(COc2ccc(C(F)(F)F)cc2C(F)(F)F)cc1	–
< 4.52	4.68	< 4.52	–	25	–	O=C(O)c1ccc(OCc2ccc3c(c2)CCC3)cc1	–
4.57	4.55	4.54	27	24	29	O=C(O)c1ccc(OCc2cccc(Cl)c2)cc1	–
5.30	5.07	4.72	24	27	19	Cc1ccccc1OCc1ccc(C(=O)O)cc1	–
< 4.52	< 4.52	–	–	–	–	Cc1ccc(OCc2ccc(C(=O)O)cc2)c(-c2ccccc2)c1	EC50 [3]: Nd(Toxic)
5.17	5.00	4.68	28	29	19	O=C(O)CCc1ccc(COc2ccc3c(c2)CCC3)cc1	–
4.80	4.80	–	11	9.5	–	CC(C)c1ccc(OCc2ccc(C(=O)O)cc2)cc1	Activity [9]: inactive
4.54	< 4.52	< 4.52	21	–	–	COc1ccccc1OCc1ccc(C(=O)O)cc1	–
< 4.52	< 4.52	< 4.52	–	–	–	O=C(O)c1ccc(COc2cc3c(cc2-c2ccccc2)CCC3)cc1	–
< 4.52	< 4.52	< 4.52	–	–	–	O=C(O)c1ccc(COc2ccc(Cl)cc2)cc1	–
< 4.52	< 4.52	< 4.52	–	–	–	O=C(O)c1ccccc1COc1ccc2c(c1)CCC2	–
–	–	–	–	–	–	CC(C)(C)c1ccc(OCc2ccc(C(=O)O)cc2)c(C(C)(C)C)c1	EC50 [1]: Nd(Toxic); EC50 [2]: Nd(Toxic); EC50 [3]: Nd(Toxic)

pEC50 [1]	pEC50 [2]	pEC50 [3]	Emax [4] [%]	Emax [5] [%]	Emax [6] [%]	Compound	further results
4.77	4.70	4.36	54	26	9.3	O=C(O)c1ccc(COc2cccc(Cl)c2)cc1	–
5.11	5.05	< 4.52	16	15	–	CC(C)(C)c1ccc(OCc2ccc(C(=O)O)cc2)cc1	Activity [10]: Active
–	–	–	–	–	–	O=C(O)CCCc1ccc(COc2ccc3c(c2)CCC3)cc1	EC50 [1]: Nd(Toxic); EC50 [2]: Nd(Toxic); EC50 [3]: Nd(Toxic)
< 4.52	< 4.52	< 4.52	–	–	–	O=C(O)c1ccc(CNc2ccc3c(c2)CCC3)cc1	–
5.00	5.00	4.52	22	15	8.5	CN(Cc1ccc(C(=O)O)cc1)c1ccc2c(c1)CCC2	–
5.00	5.08	< 4.52	58	31	–	O=C(O)c1ccc(COc2ccccc2Cl)cc1	–
4.40	4.32	< 4.52	21	36	–	O=C(O)c1ccc(COc2ccc(Br)cc2)cc1	–
5.96	5.68	5.00	22	22	52	O=C(O)c1ccc(COc2ccccc2C(F)(F)F)cc1	–
5.38	5.28	5.40	37	36	14	CC(C)(C)c1ccc(OCc2ccc(C(=O)O)cc2)c(Cl)c1	–
4.55	4.46	–	11	7.4	–	CCc1ccc(OCc2ccc(C(=O)O)cc2)cc1	Activity [9]: inactive
4.89	4.74	4.66	47	9.9	8.8	O=C(O)Cc1ccc(COc2ccc3c(c2)CCC3)cc1	–
< 4.52	< 4.52	< 4.52	–	–	–	CC(C)(C)c1ccc(OCc2ccc(C(=O)O)cc2)c(-c2ccccc2)c1	–
5.96	5.72	5.38	26	18	25	O=C(O)c1ccc(COc2ccccc2OC(F)(F)F)cc1	–
< 4.52	< 4.52	< 4.52	–	–	–	O=C(O)c1ccc(COc2ccccc2F)cc1	–
< 4.52	< 4.52	–	–	–	–	O=C(O)c1ccc(OCc2ccccc2-c2ccccc2)cc1	EC50 [3]: Nd(Toxic)
